Laboratory results published in publication PMC5487681, “Identification of Antifungal H^+-ATPase Inhibitors with Effect on Plasma Membrane Potential” (Antimicrobial Agents and Chemotherapy, 2017).
Where two headings read alike, the source gives them in different places. Residues, ends and D or L forms follow the SMILES beside them.

Columns and labels:
S. cerevisiae Pma1 = S. cerevisiae Pma1 (Saccharomyces cerevisiae, UniProt P05030); test: ATP hydrolysis assay, S. cerevisiae plasma membranes containing Pma1; type: biochemical; parameters: containing the full-length cDNA of the S. cerevisiae plasma membrane H^+-ATPase isoform PMA1; made in house; host or cells: S. cerevisiae RS72 (PMA1 cDNA under PMA1 promoter); also wild-type S. cerevisiae ATCC 9763; conditions: for Selectivity toward Pma1 than toward SERCA or Na^+,K^+-ATPase / Selectivity for Pma1 over Na^+,K^+-ATPase / Selectivity for Pma1 over SERCA: from IC50 of Table 2
Protocol: Plasma membranes containing Pma1 were isolated from S. cerevisiae RS72 cells containing the full-length cDNA of the S. cerevisiae plasma membrane H^+-ATPase isoform PMA1 under the control of the PMA1 promoter, as described in reference.
(§1) A 100-ml overnight culture in YPD medium [10 g/liter yeast extract (BD, Sparks, MD), 20 g/liter Bacto peptone (BD), 20 g/liter D-(+)-glucose] was transferred to 1 liter YPD medium and grown at room temperature and 150 rpm for 18 h for wild-type S. cerevisiae (ATCC 9763) and 7 h for C. albicans. The cells were harvested and washed in Milli-Q H2O by centrifugation at 3,360 × g. The cells were glucose activated by the addition of 10% D-(+)-glucose for 10 min while shaking. The cells were then centrifuged at 3,360 × g for 3 min and frozen. Cells (60 to 80 g, wet weight) were then disrupted by bead beating (BioSpec, Bartlesville, OK) and processed as described in reference to prepare the plasma membranes. […] All batches were validated by ATPase hydrolysis activity, pH optimum, and orthovanadate sensitivity.
The protein activity levels were determined by measuring the amount of free phosphate produced from the ATP hydrolysis reaction. The assay was performed as described in reference. Each well contained ATPase enzyme, 2 μl of inhibitor (usually in the range of 333 to 0.01 μM) dissolved in dimethyl sulfoxide (DMSO) (Duchefa Biochemie, Haarlem, The Netherlands), and an assay buffer dependent on the enzyme for a final volume of 60 μl. Possible compound precipitation in the assay buffer was monitored using a Nephelostar plate reader measuring turbidity, and the information was taken into account in the IC50 determination. Pma1 assay buffer consisted of 20 mM 3-(N-morpholino)propanesulfonic acid (MOPS)–NaOH, pH 6.5 or 7.0, 8 mM MgSO4, 50 mM KNO3 (a vacuolar ATPase inhibitor), 25 mM sodium azide (a mitochondrial ATPase inhibitor), and 250 μM sodium molybdate (an acid phosphatase inhibitor). SERCA buffer consisted of 9 mM MOPS-NaOH, pH 7, 2.7 mM MgCl2, 90 μM CaCl2, and 72 mM KCl. Na^+,K^+-ATPase buffer consisted of 30 mM MOPS-NaOH, pH 7, 40 mM NaCl, 4 mM MgCl2, and 20 mM KCl. The concentration of protein was adjusted to obtain a signal of the optical density at 860 nm (OD860) of between 0.5 and 1.0 in the untreated samples (for all Pma1 batches, ∼1 to 2 μg/well; for SERCA and Na^+,K^+-ATPase, ∼0.1 to 0.2 μg/well). […]

Candida spp. = test: Fungal growth inhibition, Candida spp. (text summary of Table 1); type: cell-based; conditions: 38 μM highest concentration tested for compounds 4 and 8, read-out: MIC for several of the Candida spp. tested
Protocol: The following fungal isolates were used: Saccharomyces cerevisiae ATCC 9763, Candida albicans SC5314, Candida parapsilosis ATCC 22019, Candida tropicalis Ct016, Candida glabrata ATCC 90030, Aspergillus fumigatus ATCC 13073, and Aspergillus flavus ATCC MYA-1005. Frozen stocks of yeast isolates in glycerol (final concentration, 20%) were prepared by growing the cells to log phase in YPD medium at 30°C and 150 rpm. Frozen stocks of mold spores were prepared by harvesting spores from 7-day-old potato glucose agar plates in phosphate-buffered saline, 0.1% Tween 80 and aliquoting these spores in the presence of glycerol (final concentration, 20%). The cells were stored at −80°C. The cells or spores were thawed and diluted to a final concentration of 0.5 × 10^5 to 2.5 × 10^5 CFU/ml in sterile Milli-Q H2O. […] The plate was incubated for 20 to 24 h at 34°C (72 h for molds), and the OD490 was measured on a Victor X5 (PerkinElmer) plate reader. Mold growth assay plates were also visually inspected. The MIC was defined as the lowest concentration inhibiting the visual growth of the microorganism. Standard errors were typically below 5%.

C. albicans Pma1 = target: T1, C. albicans Pma1 (Candida albicans, UniProt P28877); test: ATP hydrolysis assay, C. albicans Pma1; type: biochemical
T1 construct: endogenous in cells
Protocol: as §1
The protein activity levels were determined by measuring the amount of free phosphate produced from the ATP hydrolysis reaction. The assay was performed as described in reference. Each well contained ATPase enzyme, 2 μl of inhibitor (usually in the range of 333 to 0.01 μM) dissolved in dimethyl sulfoxide (DMSO) (Duchefa Biochemie, Haarlem, The Netherlands), and an assay buffer dependent on the enzyme for a final volume of 60 μl. Possible compound precipitation in the assay buffer was monitored using a Nephelostar plate reader measuring turbidity, and the information was taken into account in the IC50 determination. Pma1 assay buffer consisted of 20 mM 3-(N-morpholino)propanesulfonic acid (MOPS)–NaOH, pH 6.5 or 7.0, 8 mM MgSO4, 50 mM KNO3 (a vacuolar ATPase inhibitor), 25 mM sodium azide (a mitochondrial ATPase inhibitor), and 250 μM sodium molybdate (an acid phosphatase inhibitor). SERCA buffer consisted of 9 mM MOPS-NaOH, pH 7, 2.7 mM MgCl2, 90 μM CaCl2, and 72 mM KCl. Na^+,K^+-ATPase buffer consisted of 30 mM MOPS-NaOH, pH 7, 40 mM NaCl, 4 mM MgCl2, and 20 mM KCl. The concentration of protein was adjusted to obtain a signal of the optical density at 860 nm (OD860) of between 0.5 and 1.0 in the untreated samples (for all Pma1 batches, ∼1 to 2 μg/well; for SERCA and Na^+,K^+-ATPase, ∼0.1 to 0.2 μg/well). BM2 ([…]-NH2, D-form amino acids) was custom synthesized by Peptide 2.0 (Chantilly, VA).

[1] = Table 1, ATP hydrolysis at pH 6.5 (compounds marked b), 2 to 3 experiments, read-out: IC50 Pma1
[2] = Table 1, ATP hydrolysis at pH 7, 2 to 3 experiments, read-out: IC50 Pma1
[3] = Table 2, pH 7, n = 2, read-out: IC50 for ATP hydrolysis, C. albicans Pma1
[4] = read-out: IC50 for the Pma1 enzyme from C. albicans
[5] = Table 2, pH 7, n = 2, read-out: IC50 for ATP hydrolysis, S. cerevisiae Pma1
[6] = ATP hydrolysis, S. cerevisiae Pma1, read-out: IC50 for Pma1

T1 sequence (P28877 whole entry): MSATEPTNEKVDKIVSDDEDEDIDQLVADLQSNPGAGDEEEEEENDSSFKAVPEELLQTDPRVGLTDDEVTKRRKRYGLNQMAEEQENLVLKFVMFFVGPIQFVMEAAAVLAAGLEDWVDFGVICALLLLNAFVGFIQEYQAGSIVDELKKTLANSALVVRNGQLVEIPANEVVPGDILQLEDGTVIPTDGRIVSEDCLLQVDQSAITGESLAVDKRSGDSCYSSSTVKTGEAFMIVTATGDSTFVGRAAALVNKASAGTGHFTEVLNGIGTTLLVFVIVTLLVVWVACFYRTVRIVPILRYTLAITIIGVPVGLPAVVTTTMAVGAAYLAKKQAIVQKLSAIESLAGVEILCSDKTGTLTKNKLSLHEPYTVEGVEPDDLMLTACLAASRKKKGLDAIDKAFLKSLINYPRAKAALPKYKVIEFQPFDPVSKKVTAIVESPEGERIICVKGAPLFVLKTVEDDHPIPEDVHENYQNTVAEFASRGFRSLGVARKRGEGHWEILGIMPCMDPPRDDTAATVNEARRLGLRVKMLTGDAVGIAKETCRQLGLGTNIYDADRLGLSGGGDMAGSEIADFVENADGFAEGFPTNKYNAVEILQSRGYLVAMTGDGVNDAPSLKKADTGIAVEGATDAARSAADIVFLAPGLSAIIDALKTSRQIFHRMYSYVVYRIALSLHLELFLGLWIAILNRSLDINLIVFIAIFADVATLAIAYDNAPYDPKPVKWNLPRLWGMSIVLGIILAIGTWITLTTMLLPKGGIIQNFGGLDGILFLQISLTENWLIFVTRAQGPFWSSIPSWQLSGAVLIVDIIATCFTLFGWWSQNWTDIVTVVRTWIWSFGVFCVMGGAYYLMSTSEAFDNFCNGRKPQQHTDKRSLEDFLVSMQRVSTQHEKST
S. cerevisiae Pma1, sequence (P05030 whole entry, canonical isoform): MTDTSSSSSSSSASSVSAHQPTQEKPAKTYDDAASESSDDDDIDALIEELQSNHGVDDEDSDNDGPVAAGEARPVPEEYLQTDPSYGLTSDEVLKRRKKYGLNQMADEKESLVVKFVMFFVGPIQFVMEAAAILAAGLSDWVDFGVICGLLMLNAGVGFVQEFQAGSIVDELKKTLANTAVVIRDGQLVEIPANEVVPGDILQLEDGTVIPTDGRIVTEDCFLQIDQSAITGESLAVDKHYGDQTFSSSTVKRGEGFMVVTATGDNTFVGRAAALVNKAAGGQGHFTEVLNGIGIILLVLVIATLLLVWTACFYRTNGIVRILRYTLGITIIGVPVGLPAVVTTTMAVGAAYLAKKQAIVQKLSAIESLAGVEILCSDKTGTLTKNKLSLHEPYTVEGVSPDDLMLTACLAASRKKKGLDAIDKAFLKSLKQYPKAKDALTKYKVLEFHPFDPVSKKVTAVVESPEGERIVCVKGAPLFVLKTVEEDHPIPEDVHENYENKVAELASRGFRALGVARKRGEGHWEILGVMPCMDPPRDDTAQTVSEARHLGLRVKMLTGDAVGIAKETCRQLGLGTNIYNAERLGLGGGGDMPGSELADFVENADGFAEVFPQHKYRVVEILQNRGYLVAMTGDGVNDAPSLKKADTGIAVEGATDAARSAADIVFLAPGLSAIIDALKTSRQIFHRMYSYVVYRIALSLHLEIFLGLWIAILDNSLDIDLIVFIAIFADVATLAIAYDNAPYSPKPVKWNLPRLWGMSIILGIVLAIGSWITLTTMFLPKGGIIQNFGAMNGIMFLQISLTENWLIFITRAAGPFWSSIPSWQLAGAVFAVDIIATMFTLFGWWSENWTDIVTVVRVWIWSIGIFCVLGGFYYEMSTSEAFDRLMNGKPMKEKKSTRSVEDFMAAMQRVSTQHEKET

Row | SMILES | MIC (Candida spp.) [µM] | IC50 (S. cerevisiae Pma1; [2]) [µM] | IC50 (C. albicans Pma1; [3]) [µM] | IC50 (S. cerevisiae Pma1; [5]) [µM] | further results
1 | Cc1c(-c2ccccc2)[o+]c2ccccc2c1C#Cc1ccccc1 [Compound 6] | > 150 | – | – | – | IC50 (S. cerevisiae Pma1; [1]): 5 ± 3 µM
2 | COc1ccc(-c2cc(C(=O)Nc3ccc4c(c3)OCCO4)c3ccccc3n2)c(OC)c1 [Compound 8] | > 38 | 6.9 ± 2 | – | – | –
3 | COc1ccc(-c2cc(C(=O)Nc3ccc(C(C)C)cc3)c3ccccc3n2)c(OC)c1 [Compound 3] | > 150 | 2.5 ± 2.5 | – | – | –
4 | CCCCOc1ccc(C2C(C#N)=C(N)Oc3cc(O)ccc32)cc1 (stereo not shown) [Compound 11] | > 150 | 12.8 ± 5 | – | – | –
5 | CCN(CC)CCCNc1nc(SC)nc2c1sc1nc(-c3ccccc3)c3c(c12)CCC3 [Compound 19] | – | – | 8.7 ± 0.5 | 7.3 ± 1 | IC50 (C. albicans Pma1; [4]): 9 µM; Selectivity toward Pma1 than toward SERCA or Na^+,K^+-ATPase (S. cerevisiae Pma1): no selectivity
6 | N=C(N)NCCC[C@@H](N)C(=O)N[C@H](CCCNC(=N)N)C(=O)N[C@H](CCCNC(=N)N)C(=O)N[C@H](Cc1ccccc1)C(=O)N[C@H](Cc1c[nH]c2ccccc12)C(=O)N[C@H](Cc1c[nH]c2ccccc12)C(=O)N[C@H](Cc1ccccc1)C(=O)N[C@H](CCCNC(=N)N)C(=O)N[C@H](CCCNC(=N)N)C(=O)N[C@H](CCCNC(=N)N)C(N)=O [BM2, reference compound] (HELM PEPTIDE1{[dR].[dR].[dR].[dF].[dW].[dW].[dF].[dR].[dR].[dR].[am]}$$$$V2.0) | – | – | 0.9 ± 0.2 | 1.2 ± 0.1 | IC50 (C. albicans Pma1; [4]): 0.9 µM; Selectivity for Pma1 over Na^+,K^+-ATPase (S. cerevisiae Pma1): 8 fold
7 | O=c1c2ccccc2[se]n1-c1ccccc1 [Ebselen, reference compound] | – | – | – | – | IC50 (C. albicans Pma1; IC50 for ATP hydrolysis, C. albicans Pma1, Table 2, pH 7, n = 2): 0.51 ± 0.04 µM
8 | CN(C)CCCNc1ncnc2c1sc1nc(N3CCCCC3)c3c(c12)CCCC3 [Compound 16] | – | – | 9.5 ± 1 | 7.8 ± 0.6 | Selectivity toward Pma1 than toward SERCA or Na^+,K^+-ATPase (S. cerevisiae Pma1): no selectivity
9 | CCOc1ccc2nc3cc(NC(=O)c4cccc(Br)c4)ccc3c(N)c2c1 [Compound 5] | – | – | – | – | IC50 (S. cerevisiae Pma1; [6]): < 25 µM; IC50 (S. cerevisiae Pma1; [1]): 4.4 ± 0.6 µM
10 | Oc1cccc(Nc2nc(-c3ccc(Cl)c(Cl)c3)cs2)c1 [Compound 7] | – | – | – | – | IC50 (S. cerevisiae Pma1; [6]): < 25 µM; IC50 (S. cerevisiae Pma1; [1]): 5.5 ± 0.3 µM
11 | CN(C)CCCNc1ncnc2c1sc1nc(-c3ccccc3)c3c(c12)CCC3 [Compound 18] | – | – | 22.9 ± 2 | 18.5 ± 4.3 | Selectivity for Pma1 over Na^+,K^+-ATPase (S. cerevisiae Pma1): 4 fold; Selectivity for Pma1 over SERCA (S. cerevisiae Pma1): 3 fold
12 | [O]=[V]([O-])([O-])[O-] [Vanadate, reference compound] | – | – | 0.23 ± 0.05 | 0.25 ± 0.01 | –
13 | O=C1/C(=C/c2ccc(-c3cc(Cl)ccc3Cl)o2)C=C(c2ccccc2)N1c1ccccc1O [Compound 1] | > 150 | – | – | – | IC50 (S. cerevisiae Pma1; [1]): 0.04 ± 0.035 µM
14 | CCCCc1nc2sc3c(NCCCN(C)C)ncnc3c2c2c1CCCC2 [Compound 14] | – | 13.7 ± 2 | 17 ± 0.9 | 13.7 ± 2 | IC50 (C. albicans Pma1; [4]): 17 µM; Selectivity for Pma1 over SERCA (S. cerevisiae Pma1): 3 fold
15 | CCCCc1nc2sc3c(NCCCN(C)C)nc(SC)nc3c2c2c1CCC2 [Compound 15] | – | – | 6.3 ± 0.5 | 5.9 ± 0.2 | Selectivity toward Pma1 than toward SERCA or Na^+,K^+-ATPase (S. cerevisiae Pma1): no selectivity
16 | CCc1nc2sc3c(NCCCN(C)C)ncnc3c2c2c1CCCC2 [Compound 17] | – | – | 151 ± 6.2 | 107 ± 18.2 | IC50 (S. cerevisiae Pma1; [6]): 107 µM
17 | COc1cccc(Nc2nc(Cl)nc(Nc3cccc(OC)c3)n2)c1 [Compound 9] | > 150 | 9.2 ± 1 | – | – | –
18 | COc1ccc(Cn2c(SCc3cc(C)ccc3C)nc3cc(OC)c(OC)cc3c2=N)cc1 [Compound 12] | > 150 | 15.5 ± 8.1 | – | – | –
19 | CC1CCCCN1CC(O)Cn1c(-c2ccccc2)c(-c2ccccc2)c2ccc3ccccc3c21 (stereo not shown) [Compound 4] | > 38 | – | – | – | IC50 (S. cerevisiae Pma1; [1]): 3.7 ± 0.7 µM
